In article PMC11959706, “Allatostatin-C signaling in the crab Carcinus maenas is implicated in the ecdysis program” (The Journal of Experimental Biology, 2025):
Bridge positions count the residues as written; N and C are the ends. Ends that are not written are not given here.

Tests used:
heart = conditions: H. americanus; often seen, the converse in some individuals; ref Dickinson et al., 2018; cited from earlier work
[1] = system: antiserum raised against Manduca sexta AST-C; experiment: AST-C radioimmunoassay standard curves and cross-reactivity; format: binding; conditions: competitive RIA with iodinated AST-C tracer, antiserum 1:1000; typical standard curves
Method: AST-C (300 pmol, dissolved in 10 µl 200 mmol l^−1 phosphate buffer at pH 7.5) was radio iodinated with 9.25–12.5 MBq NaI^125 in 10^−5 mol l^−1 NaOH (PerkinElmer, Boston MA), using Chloramine-T ([Bolton, 1989]). Following termination of the reaction (4.3 µg cysteine in 100 µl phosphate buffer) and quenching (500 µl of 0.2 mg ml^−1 KI in phosphate buffer), radiolabeled peptide was separated from unincorporated iodide on Sep-Pak C18 cartridges (Waters, Milford, MA, USA), by firstly washing with 10 ml of 200 mmol l^−1 phosphate buffer then eluting the peptide with 40% isopropanol in 500 µl fractions. Small quantities (2 µl) were then taken for counting. Specific activities of 8–16 TBq mmol^−1 were routinely obtained.
RIA conditions were as follows: iodinated AST-C 35,000 dpm per 50 µl PBS containing 0.05% BSA and 0.02% sodium azide. An antiserum raised against Manduca sexta AST-C (a generous gift from Dr N. Audsley, FERA, York) was used at 1:1000 in PBS at 50 µl per tube. Standard peptides 2–2000 fmol per 50 µl and unknowns were assayed in duplicate. Tubes were first incubated for 6 h at room temperature, without tracer, which was then added, followed by 4°C incubation overnight. […]

vitellogenesis = conditions: S. paramamosain; ref Liu et al., 2019; cited from earlier work
Description: It is likely that vitellogenesis takes place during inter-molt in this species, as it does in C. maenas ([Styrishave et al., 2008]), a closely related portunid crab. Since AST-C and likely AST-CC are only ephemerally released during the completion of ecdysis in the latter species, involvement of AST-C in inhibition of vitellogenesis seems entirely improbable, and it is extremely unlikely that in vivo injection of AST-C, as reported by [Liu et al. (2019)], has any biological relevance i ...

YOs = system: YOs; parameters: method as in Liu et al., 2021; conditions: 10^−6 M; S. paramamosain; EIA measuring 20-hydroxyecdysone; ref Liu et al., 2021; cited from earlier work
AST-C receptor = conditions: S. paramamosain AST-C receptor, CRE-Luc reporter, HEK293; ref Liu et al., 2021; cited from earlier work
Description: For decapod crustaceans, the only other AST-C receptors that have been functionally de-orphaned are those from Cancer borealis, using EGFP fused to the C-terminus of the AST-C receptor and expression in Spodoptera frugiperda SF9 cells ([Dickinson et al., 2019]), and from H. americanus, using chimeric EGFP constructs in Tricoplusia ni cells.

| Substance | Effect on heart rate (heart) | ED50 in AST-C RIA standard curve [1] | Effect of in vivo injection on vitellogenesis (vitellogenesis) | Effect on ecdysteroid synthesis by YOs in vitro (YOs) | ED50, receptor activation (AST-C receptor) |
| --- | --- | --- | --- | --- | --- |
| GNGDGRLYWRCYFNAVSCF (disulfide 11-18 (inferred)) [AST-CC, C. maenas AST-C family neuropeptide; synthetic (GenScript)] | decrease in amplitude and frequency of heart rate | 8000 fmol per tube | – | – | – |
| pQIRYHQCYFNPISCF (disulfide) [AST-C, allatostatin-C, C. maenas AST-C family neuropeptide with C-terminal PISCF motif; synthetic (GenScript)] | decrease in amplitude and frequency of heart rate | 20 fmol per tube | inhibits vitellogenesis | slightly inhibit | ~6 nM |
